US20230158005A1 (priority 2020, published 2023)
Values joined by “and” are separate entries in the source; they are usually repeats but may differ in a detail not shown here. Identical values can stand only once.

Test system: A/Washington/29/2009 (H1N1) H275Y
Type: cell-based, influenza A virus

Compound | DIF (Difference from Control) [log10TCID50/mL] | Virus titer AVG | Virus titer, replicates 1-3
CCOC(=O)C1=C[C@@H](OC(CC)CC)[C@H](NC(C)=O)[C@@H](N)C1 [Oseltamivir, oseltamivir, reference compound] | -0.92 | 3.92 log10TCID50/mL | 3.75 log10TCID50/mL (2×) and 4.25 log10TCID50/mL
CC1=C(COCCC(C)(C)C)C(=O)N(Nc2ccc(C(F)(F)F)c(Cl)n2)C1=O [felezonexor, 3-[(3,3-dimethylbutoxy)methyl]-1-{[6-chloro-5-(trifluoromethyl) (2-pyridyl)]amino}-4-methylazoline-2,5-dione] | – | 2.67 log10TCID50/mL and 3.83 log10TCID50/mL and 4.50 log10TCID50/mL | 2.75 log10TCID50/mL (2×) and 3.50 log10TCID50/mL and 4.50 log10TCID50/mL (3×) and 2.50 log10TCID50/mL and 3.75 log10TCID50/mL and 4.25 log10TCID50/mL
